These results are taken from patent US20260159512A1, “BCAT2 INHIBITORS” (AGIOS PHARMACEUTICALS, INC., priority 2021, published 2026).

What all share (conditions): average where tested multiple times
Assay [1] deals with T1, BCAT2 (Homo sapiens, UniProt O15382).
T1 sequence (O15382 28-392): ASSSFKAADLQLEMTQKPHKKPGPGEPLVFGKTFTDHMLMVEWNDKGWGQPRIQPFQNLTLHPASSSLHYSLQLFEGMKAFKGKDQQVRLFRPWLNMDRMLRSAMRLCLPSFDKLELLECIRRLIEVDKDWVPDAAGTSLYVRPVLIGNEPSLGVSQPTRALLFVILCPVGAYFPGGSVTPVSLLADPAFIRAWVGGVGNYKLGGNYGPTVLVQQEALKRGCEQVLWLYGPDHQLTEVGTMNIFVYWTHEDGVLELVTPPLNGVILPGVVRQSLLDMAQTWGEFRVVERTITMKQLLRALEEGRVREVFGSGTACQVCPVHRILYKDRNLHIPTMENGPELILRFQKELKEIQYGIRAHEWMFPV
Nature of the assay: BCAT2 in vitro enzyme inhibition assay (resazurin/diaphorase-coupled fluorescence). The class given is biochemical. The method, boiled down:
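Coupled fluorescence readout: glutamate formed from L-leucine/α-ketoglutarate transamination drives GDH/NAD/diaphorase reduction of resazurin (Ex 540/Em 590). Human BCAT2 was first exposed 1 h at room temperature to compound, top final 100 μM in 3-fold, 10-point series; substrate reaction ran 1 h before SDS quench, in technical duplicate with DMSO max and enzyme-free min controls.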
(In general: Alamar Blue is a resazurin reagent that responds to reducing activity.)

In assay [2] the target is T1, BCAT2. Nature of the assay: BCAT2 in vitro cell inhibition using engineered A549 cells (KMV cell assay, 13C6-KMV by LC-MS/MS). The class given is cell-based. The arrangement: The result was an engineered A549 cell line that expressed endogenous BCAT2; endogenous in cells; host or cells: A549 cells with MUT and BCAT1 knocked out by CRISPR/CAS9.
Assay [3] has as its target T2, hBCAT1 (Homo sapiens, UniProt P54687).
T2 sequence (P54687 1-386): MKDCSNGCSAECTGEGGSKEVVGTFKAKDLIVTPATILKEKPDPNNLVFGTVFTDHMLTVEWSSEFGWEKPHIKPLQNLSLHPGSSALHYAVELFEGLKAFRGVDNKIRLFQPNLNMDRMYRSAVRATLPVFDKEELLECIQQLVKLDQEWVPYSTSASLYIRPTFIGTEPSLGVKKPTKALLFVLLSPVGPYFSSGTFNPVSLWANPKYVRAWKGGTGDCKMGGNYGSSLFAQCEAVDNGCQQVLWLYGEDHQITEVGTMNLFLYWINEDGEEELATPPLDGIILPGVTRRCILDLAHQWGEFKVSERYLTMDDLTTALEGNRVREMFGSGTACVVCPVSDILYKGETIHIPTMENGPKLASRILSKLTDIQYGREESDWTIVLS
Nature of the assay: BCAT1 in vitro enzyme inhibition assay (resazurin/diaphorase-coupled fluorescence). The class given is biochemical. The method, boiled down:
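Ten-point, 3-fold compound series (top final 100 μM, delivered 1:50 from 50× DMSO stocks) tested against hBCAT1. Inhibition detected via diaphorase-coupled resazurin fluorescence, duplicate wells, with values from repeated runs averaged.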

Each structure is given as a SMILES string. Where “and” joins values, the source holds several entries; their conditions need not be identical. Equal values may be shown once.

What is called IC50 is the concentration needed to halve the response being measured. In the case of `CC(C)Cc1nc2cnc(-n3nccn3)cc2n1[C@@H]1CCC[C@H](NC(=O)c2ncc(Cl)s2)C1` [Example 84, 5-chloro-N-((1S,3R)-3-(2-isobutyl-6-(2H-1,2,3-triazol-2-yl)-1H-imidazo[4,5-c]pyridin-1-yl)cyclohexyl)thiazole-2-carboxamide], the results for the IC50 in assay [1], in assay [2] and in assay [3] were no more than 100 nM, no more than 100 nM and less than 500 nM, respectively.

Regarding `CNC(=O)c1cc2nc(-c3ccccc3F)n(C3CC(NC(=O)c4ccc(Br)s4)CN(C)C3)c2cc1OC` (stereo not drawn) [Example 291, 1-(5-(5-bromothiophene-2-carboxamido)-1-methylpiperidin-3-yl)-2-(2-fluorophenyl)-6-methoxy-N-methyl-1H-benzo[d]imidazole-5-carboxamide], the concentration for half-maximal inhibition (IC50) was no more than 100 nM in assay [1], 100 to 500 nM in assay [2] and 1000 to 5000 nM in assay [3].

Regarding `COc1cccc(F)c1-c1nc2cnc(-c3nc[nH]n3)cc2n1[C@@H]1CCCC[C@H](NC(=O)c2ccc(Cl)s2)[C@H]1O` [Example 407, 5-chloro-N-((1S,2R,3R)-3-(2-(2-fluoro-6-methoxyphenyl)-6-(1H-1,2,4-triazol-3-yl)-1H-imidazo[4,5-c]pyridin-1-yl)-2-hydroxycycloheptyl)thiophene-2-carboxamide], the half-maximal inhibitory concentration (IC50) in assay [1] is no more than 100 nM; in assay [2] it was no more than 100 nM; in assay [3] it was less than 500 nM.

`Cc1coc(-c2cc3c(cn2)nc(CC(C)C)n3C2CCCC(NC(=O)c3ncc(Cl)s3)C2O)n1` (stereo not drawn) [Example 211, 5-chloro-N-(2-hydroxy-3-(2-isobutyl-6-(4-methyloxazol-2-yl)-1H-imidazo[4,5-c]pyridin-1-yl)cyclohexyl)thiazole-2-carboxamide]: the IC50 is no more than 100 nM in assay [1], 100 to 500 nM in assay [2] and less than 500 nM in assay [3].

Consider `COC(=O)c1cnn(-c2cc3c(cn2)nc(-c2ccccn2)n3[C@@H]2CCC[C@H](NC(=O)c3ncc(C(F)F)s3)C2)n1` [Example 64, methyl 2-(1-((1R,3S)-3-(5-(difluoromethyl)thiazole-2-carboxamido)cyclohexyl)-2-(pyridin-2-yl)-1H-imidazo[4,5-c]pyridin-6-yl)-2H-1,2,3-triazole-4-carboxylate], for which the IC50 in assay [1] was no more than 100 nM; in assay [2], 100 to 500 nM and 500 to 1000 nM; in assay [3] it was 1000 to 5000 nM.

As for `N#CC1CC(NC(=O)c2ncc(Cl)s2)CC(n2c(-c3ccccc3F)nc3cnc(-c4nc[nH]n4)cc32)C1` (single isomer, unassigned) [Example 451, 5-chloro-N-(3-cyano-5-(2-(2-fluorophenyl)-6-(1H-1,2,4-triazol-3-yl)-1H-imidazo[4,5-c]pyridin-1-yl)cyclohexyl)thiazole-2-carboxamide], the results for the IC50 in assay [1], in assay [2] and in assay [3] were no more than 100 nM, 100 to 500 nM and less than 500 nM, respectively.

For the compound `Cc1cccnc1-c1nc2cnc(-n3nccn3)cc2n1[C@@H]1CCC[C@H](NC(=O)c2ncc(C(F)F)s2)C1` [Example 60, 5-(difluoromethyl)-N-((1S,3R)-3-(2-(3-methylpyridin-2-yl)-6-(2H-1,2,3-triazol-2-yl)-1H-imidazo[4,5-c]pyridin-1-yl)cyclohexyl)thiazole-2-carboxamide], the figures for the IC50 in assay [1], in assay [2] and in assay [3] were no more than 100 nM, 100 to 500 nM and 500 to 1000 nM, respectively.

As to `CO[C@H]1C[C@H](NC(=O)c2ncc(Cl)s2)C[C@H](n2c(CC(C)C)nc3cnc(-c4nc(C)co4)cc32)C1` [Example 409, 5-chloro-N-((1R,3S,5S)-3-(2-isobutyl-6-(4-methyloxazol-2-yl)-1H-imidazo[4,5-c]pyridin-1-yl)-5-methoxycyclohexyl)thiazole-2-carboxamide], the IC50 was no more than 100 nM in assay [1], 100 to 500 nM in assay [2] and 500 to 1000 nM in assay [3].

Regarding `Cc1coc(-c2cc3c(cn2)nc(-c2ccccn2)n3[C@@H]2CCC[C@H](NC(=O)c3ccc(Br)s3)C2)n1` [Example 31, 5-bromo-N-((1S,3R)-3-(6-(4-methyloxazol-2-yl)-2-(pyridin-2-yl)-1H-imidazo[4,5-c]pyridin-1-yl)cyclohexyl)thiophene-2-carboxamide], the IC50 in assay [1] is no more than 100 nM; in assay [2], no more than 100 nM; in assay [3] it was less than 500 nM.
